Test results as given in ChEMBL document CHEMBL5512619, “Anticancer mechanism of coumarin-based derivatives” (Eur J Med Chem, 2024).
Converted amounts (≈) assume the structure as drawn.

Key:
[1] = target: Carbonic anhydrase 9 (Homo sapiens, UniProt Q16790); assay: Binding affinity to human CA9 assessed as inhibition constant incubated for 10 mins by phenol red dye based stopped flow CO2 hydration assay
[2] = target: T1, Carbonic anhydrase 2 (Homo sapiens, UniProt P00918); assay: Binding affinity to human CA2 assessed as inhibition constant incubated for 10 mins by phenol red dye based stopped flow CO2 hydration assay
[3] = target: T2, Carbonic anhydrase 1 (Homo sapiens, UniProt P00915); assay: Binding affinity to human CA1 assessed as inhibition constant incubated for 10 mins by phenol red dye based stopped flow CO2 hydration assay
T2 sequence (P00915 whole entry): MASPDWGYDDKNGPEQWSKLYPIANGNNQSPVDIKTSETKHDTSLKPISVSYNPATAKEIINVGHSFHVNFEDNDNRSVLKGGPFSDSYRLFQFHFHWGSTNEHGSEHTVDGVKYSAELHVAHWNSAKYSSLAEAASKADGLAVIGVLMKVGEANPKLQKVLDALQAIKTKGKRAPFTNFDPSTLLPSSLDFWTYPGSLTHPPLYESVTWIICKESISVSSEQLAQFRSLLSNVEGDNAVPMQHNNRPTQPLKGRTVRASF

[4] = target: Carbonic anhydrase 12 (Homo sapiens, UniProt O43570); assay: Binding affinity to human CA12 assessed as inhibition constant incubated for 10 mins by phenol red dye based stopped flow CO2 hydration assay
Carbonic anhydrase 12, sequence (O43570 whole entry): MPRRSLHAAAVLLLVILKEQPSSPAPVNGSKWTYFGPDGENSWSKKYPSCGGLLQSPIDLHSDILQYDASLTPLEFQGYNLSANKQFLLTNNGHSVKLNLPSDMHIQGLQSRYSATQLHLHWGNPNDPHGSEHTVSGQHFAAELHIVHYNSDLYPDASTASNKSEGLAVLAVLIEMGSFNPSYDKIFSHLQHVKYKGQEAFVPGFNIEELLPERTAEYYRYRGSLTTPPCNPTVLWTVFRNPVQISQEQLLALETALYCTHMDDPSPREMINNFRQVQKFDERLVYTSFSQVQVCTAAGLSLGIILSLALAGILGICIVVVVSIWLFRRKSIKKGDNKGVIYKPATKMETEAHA

[5] = system: HepG2; assay: Antiproliferative activity against human HepG2 cells measured after 24 hrs by MTT assay; format: functional, cell-based; details: HepG2, 24 h
[6] = system: HCT-116; assay: Antiproliferative activity against human HCT-116 cells measured after 24 hrs by MTT assay; format: functional, cell-based; details: HCT-116, 24 h
[7] = system: A549; assay: Antiproliferative activity against human A549 cells measured after 24 hrs by MTT assay; format: functional, cell-based; details: A549, 24 h
[8] = target: T2, Carbonic anhydrase 1; assay: Binding affinity to human CA1 assessed as inhibition constant incubated for 6 hrs by phenol red dye based stopped flow CO2 hydration assay
[9] = target: T3, Vascular endothelial growth factor receptor 2 (Homo sapiens, UniProt P35968); assay: Inhibition of human VEGFR2
T3 sequence (P35968 whole entry): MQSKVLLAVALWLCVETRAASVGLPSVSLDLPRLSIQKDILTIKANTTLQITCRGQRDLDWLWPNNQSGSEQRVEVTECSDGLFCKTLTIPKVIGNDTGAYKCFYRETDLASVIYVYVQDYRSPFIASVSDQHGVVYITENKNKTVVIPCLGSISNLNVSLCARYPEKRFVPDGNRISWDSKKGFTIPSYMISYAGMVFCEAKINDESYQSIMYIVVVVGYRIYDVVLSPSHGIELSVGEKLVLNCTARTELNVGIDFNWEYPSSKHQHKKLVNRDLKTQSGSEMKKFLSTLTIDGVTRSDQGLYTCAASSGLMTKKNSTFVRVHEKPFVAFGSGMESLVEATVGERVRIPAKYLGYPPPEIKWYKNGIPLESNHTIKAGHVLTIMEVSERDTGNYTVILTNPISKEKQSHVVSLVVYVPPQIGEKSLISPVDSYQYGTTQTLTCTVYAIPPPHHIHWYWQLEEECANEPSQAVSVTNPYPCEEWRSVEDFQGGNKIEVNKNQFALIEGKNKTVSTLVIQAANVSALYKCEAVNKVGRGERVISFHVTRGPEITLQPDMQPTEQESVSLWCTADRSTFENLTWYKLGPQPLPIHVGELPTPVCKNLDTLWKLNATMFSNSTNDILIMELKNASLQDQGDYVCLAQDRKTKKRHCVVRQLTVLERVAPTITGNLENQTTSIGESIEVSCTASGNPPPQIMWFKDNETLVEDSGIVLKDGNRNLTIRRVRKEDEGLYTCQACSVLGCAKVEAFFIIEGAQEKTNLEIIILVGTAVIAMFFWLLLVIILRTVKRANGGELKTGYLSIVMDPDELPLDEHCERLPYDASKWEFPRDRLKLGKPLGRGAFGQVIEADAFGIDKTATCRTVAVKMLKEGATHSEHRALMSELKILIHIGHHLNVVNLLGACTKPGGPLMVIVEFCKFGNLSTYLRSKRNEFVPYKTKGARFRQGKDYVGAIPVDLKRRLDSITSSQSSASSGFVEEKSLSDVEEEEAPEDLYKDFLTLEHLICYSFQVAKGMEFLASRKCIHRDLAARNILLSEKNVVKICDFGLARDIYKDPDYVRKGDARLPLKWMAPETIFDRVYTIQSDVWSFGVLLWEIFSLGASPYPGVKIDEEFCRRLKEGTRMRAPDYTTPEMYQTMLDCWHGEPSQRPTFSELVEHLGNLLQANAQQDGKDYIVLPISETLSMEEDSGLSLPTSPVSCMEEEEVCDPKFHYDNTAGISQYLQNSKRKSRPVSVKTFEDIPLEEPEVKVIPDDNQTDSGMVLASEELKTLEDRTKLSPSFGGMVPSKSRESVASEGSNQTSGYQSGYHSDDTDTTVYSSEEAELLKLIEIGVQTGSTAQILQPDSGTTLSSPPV

[10] = Inhibition of DNA topoisomerase II (unknown origin)
[11] = system: MDA-MB-231; assay: Antiproliferative activity against human MDA-MB-231 cells incubated for 96 hrs by MTT assay; details: MDA-MB-231, 96 h
[12] = system: T98G; assay: Induction of apoptosis in human T98G cells relative to control; format: functional
[13] = system: KB; assay: Antiproliferative activity against human KB cells measured after 48 hrs by MTT assay; format: functional, cell-based
[14] = target: Bromodomain-containing protein 4 (Homo sapiens, UniProt O60885); assay: Inhibition of BRD4 (unknown origin)
[15] = Induction of apoptosis in human MOG-G-CCM cells relative to control; format: functional
[16] = Induction of autophagy in human MOG-G-CCM cells relative to control; format: functional
[17] = system: A549; assay: Cytotoxicity against human A549 cells assessed as inhibition of cell growth by MTT assay; format: functional, cell-based
[18] = Cytotoxicity against human BEAS-2B cells assessed as inhibition of cell growth by MTT assay; format: toxicity, cell-based
[19] = system: MCF7; assay: Cytotoxicity against human MCF7 cells assessed as inhibition of cell growth by MTT assay; format: functional, cell-based
[20] = target: Steryl-sulfatase (Homo sapiens, UniProt P08842); assay: Inhibition of STS in human placental microsome; format: microsomes
Steryl-sulfatase, sequence (P08842 whole entry): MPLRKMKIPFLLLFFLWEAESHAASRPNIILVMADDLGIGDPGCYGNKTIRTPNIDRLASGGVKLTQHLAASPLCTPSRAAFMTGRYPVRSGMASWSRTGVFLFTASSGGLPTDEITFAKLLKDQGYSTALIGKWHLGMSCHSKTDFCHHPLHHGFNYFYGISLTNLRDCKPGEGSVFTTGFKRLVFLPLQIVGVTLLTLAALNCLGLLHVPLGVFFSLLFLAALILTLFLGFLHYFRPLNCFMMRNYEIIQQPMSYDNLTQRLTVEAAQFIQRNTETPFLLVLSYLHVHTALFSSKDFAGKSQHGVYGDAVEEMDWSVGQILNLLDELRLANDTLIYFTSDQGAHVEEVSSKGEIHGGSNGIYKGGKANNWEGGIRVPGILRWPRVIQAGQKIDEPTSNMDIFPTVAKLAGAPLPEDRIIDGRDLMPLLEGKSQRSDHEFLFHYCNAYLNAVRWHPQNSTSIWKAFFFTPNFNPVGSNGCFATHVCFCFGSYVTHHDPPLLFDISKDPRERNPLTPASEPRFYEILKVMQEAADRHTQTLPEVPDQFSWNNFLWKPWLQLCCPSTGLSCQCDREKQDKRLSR

[21] = system: T-cell; assay: Cytotoxicity against mouse T-lymphocyte cells by MTT assay; format: functional, cell-based
[22] = system: EL4; assay: Cytotoxicity against mouse EL4 cells by MTT assay; format: functional, cell-based
[23] = Cytotoxicity against mouse LB3 cells by MTT assay; format: functional, cell-based
[24] = target: T1, Carbonic anhydrase 2; assay: Binding affinity to human CA2 assessed as inhibition constant incubated for 6 hrs by phenol red dye based stopped flow CO2 hydration assay
[25] = system: A549; assay: Antiproliferative activity against human A549 cells incubated for 48 hrs by MTT assay; format: functional, cell-based; details: A549, 48 h
[26] = system: HeLa; assay: Antiproliferative activity against human HeLa cells incubated for 48 hrs by MTT assay; format: functional, cell-based
[27] = target: Tubulin; assay: Inhibition of tubulin polymerization (unknown origin) by spectrophotometric method; format: protein-complex assay, Homo sapiens
[28] = system: MCF7; assay: Cytotoxicity against human MCF7 cells by MTT assay; format: functional, cell-based
[29] = system: MDA-MB-231; assay: Cytotoxicity against human MDA-MB-231 cells by MTT assay; format: functional, cell-based
[30] = target: T3, Vascular endothelial growth factor receptor 2; assay: Inhibition of VEGFR2 (unknown origin)
[31] = system: MCF7; assay: Cytotoxicity against human MCF-7 cells; format: functional, cell-based
[32] = system: MCF7; assay: Cytotoxicity against human MCF-7 cells relative to control; format: functional
[33] = system: MCF7; assay: Antiproliferative activity against human MCF7 cells measured after 72 hrs by MTT assay; format: functional, cell-based; details: MCF7, 72 h
[34] = system: Caco-2; assay: Antiproliferative activity against human Caco-2 cells measured after 72 hrs by SRB method; details: Caco-2, 72 h
[35] = system: HCT-116; assay: cells; details: Homo sapiens, HCT-116, 72 h
Description: Antiproliferative activity against human HCT-116 cells measured after 72 hrs by SRB method

O=C(Nc1ccc2c(c1)C=CS(=O)(=O)O2)c1ccc(F)c(S(=O)(=O)N2CCCCC2)c1
Ki [1]: 30.6 nM | Ki [2]: 99.4 nM | Ki [3]: 99.4 nM | Ki [4]: 30.6 nM

COc1ccc(-c2cc(-c3cc4ccccc4oc3=O)nc3nc(C)[nH]c(=O)c23)cc1
IC50 [5]: 1100 nM | IC50 [6]: 1100 nM | IC50 [7]: 1100 nM

Cc1cc(=O)oc2cc(OCc3cn(CCCCCCCCCCCCOc4ccc5ccc(=O)oc5c4)nn3)ccc12
Ki [8]: > 10000 nM

CC1SC(N2N=C(c3cc4ccccc4oc3=O)CC2c2ccc(N(C)C)cc2)=NC1=O (configuration not stated)
IC50 [9]: 34 nM

COc1cccc2c1C(=O)c1c(O)c3c(c(O)c1C2=O)C[C@@](O)(C(=O)CO)C[C@@H]3O[C@H]1C[C@H](N)[C@H](O)[C@H](C)O1 [DOXORUBICIN]
IC50 [10]: 9650 nM | IC50 [11]: 600 nM

O=c1ccc2ccc(O)cc2o1 [UMBELLIFERONE]
Activity [12]: 15% | IC50 [13]: 200000 nM

CCS(=O)(=O)Nc1ccc(Oc2ccccc2OC)c(-c2ccc3oc(=O)cc(OC)c3c2)c1
IC50 [14]: 99 nM

CNC(=O)c1cc(Oc2ccc(NC(=O)Nc3ccc(Cl)c(C(F)(F)F)c3)cc2)ccn1 [SORAFENIB]
Activity [15]: 25% | Activity [16]: 1%

C/C(=N\Cc1ccc(O)cc1)c1c(O)c2ccccc2oc1=O
IC50 [17]: 6.09 µg/mL (≈ 19.7 µM) | IC50 [18]: 4.08 µg/mL (≈ 13.2 µM) | IC50 [19]: 1.41 µg/mL (≈ 4.56 µM)

Cc1c(Cc2ccccc2)c(=O)oc2cc(OS(N)(=O)=O)ccc12
IC50 [20]: 32 nM

O=C(CCCCCNC(=O)c1cc(C(=O)NCCCCCC(=O)Nc2ccc(-c3c(-c4ccc(OCCN5CCCCC5)cc4)c4ccc(OCCN5CCCCC5)cc4oc3=O)cc2)cc(C(=O)NCCCCCC(=O)Nc2ccc(-c3c(-c4ccc(OCCN5CCCCC5)cc4)c4ccc(OCCN5CCCCC5)cc4oc3=O)cc2)c1)Nc1ccc(-c2c(-c3ccc(OCCN4CCCCC4)cc3)c3ccc(OCCN4CCCCC4)cc3oc2=O)cc1
IC50 [21]: 10000 nM | IC50 [22]: 10000 nM | IC50 [23]: 10000 nM

Cc1cc(=O)oc2cc(OCc3cn(CCCCCCCCCCOc4ccc5ccc(=O)oc5c4)nn3)ccc12
Ki [24]: > 10000 nM | Ki [8]: > 10000 nM

Cc1ccc2oc(=O)cc(COc3c(C)occc3=O)c2c1
IC50 [25]: 2470 nM | IC50 [26]: 2470 nM

Cc1ccc(C(=O)Nc2ccc3c(c2)C=CS(=O)(=O)O3)cc1S(=O)(=O)N1C[C@@H](C)O[C@@H](C)C1
Ki [1]: 30.6 nM | Ki [2]: 99.4 nM | Ki [3]: 99.4 nM | Ki [4]: 30.6 nM

COc1ccc2c3c(c(=O)oc2c1)CC(C(C)(O)CC/C=C(\C)CCC=C(C)C)O3 (configuration not stated)
IC50 [27]: 9200 nM | IC50 [28]: 19800 nM | IC50 [29]: 15600 nM

COC(=O)C(Cc1ccc(O)cc1)NC(=O)c1cc2ccccc2oc1=O (configuration not stated)
IC50 [30]: 34200 nM | IC50 [10]: 8600 nM | IC50 [31]: 4980 nM | Activity [32]: 97.82%

CN(C)c1ccc(C2CC(c3c(O)c4ccccc4oc3=O)=NN2c2nc(-c3ccccc3)c(/N=N/c3ccc(Cl)cc3)s2)cc1 (configuration not stated)
IC50 [9]: 34 nM

O=c1ccc2ccc(O)c(O)c2o1 [DAPHNETIN]
IC50 [33]: 73000 nM

CC(=O)O[C@H]1C(=O)[C@@]2(C)[C@H]([C@H](OC(=O)c3ccccc3)[C@]3(O)C[C@H](OC(=O)[C@H](O)[C@@H](NC(=O)c4ccccc4)c4ccccc4)C(C)=C1C3(C)C)[C@]1(OC(C)=O)CO[C@@H]1C[C@@H]2O [PACLITAXEL]
IC50 [34]: 2100 nM | IC50 [35]: 27.9 nM
